From paper PMC7738871, “Covalent modification of Keap1 at Cys77 and Cys434 by pubescenoside a suppresses oxidative stress-induced NLRP3 inflammasome activation in myocardial ischemia-reperfusion injury” (Theranostics, 2021) come the findings set out here.

SMILES strings stand for the structures.

One test concerns the target T1, Keap1 C226S (Homo sapiens, UniProt Q14145, C226S).
T1 construct: His (N); made in house; host or cells: E. coli BL21 (DE3)
The experiment in a line: ITC titration of PBA with Keap1-C226S. The class given is binding. The conditions noted are these: 25 ℃. On the procedure: (§1) The Keap1 was amplified by PCR using a human cDNA library, and was subcloned into the vector pET28-TEV, which contained one tobacco etch virus (TEV) protease cleavage site at the upstream multiple cloning site. The protein was expressed in E. coli BL21 (DE3) cells and incubated at 37 °C until the OD600 value reached 0.6, using 0.2 mM isopropyl β-D-1-thiogalactopyranoside (IPTG) overnight induction at 18 °C. The cells were isolated by centrifugation, resuspended in ice-cold lysis buffer and lysed by cryogenic overpressure cell breaker at 1,200 psi. The lysates were centrifuged for 60 min at 14,000 rpm to obtain the supernatant. Gravity flow purification of Keap1 protein was obtained at room temperature using 1 mL of Ni-NTA and eluted in buffer containing 250 mM imidazole, followed by 1 mL of HiTrap QHP for the second step purification. The final protein was purified and validated by Superdex 200 10/300GL resin.
(§2) The mutant plasmid DNA was obtained by PCR. The PCR products were cleaved by DpnI restriction enzymes. The restriction endonuclease-cleaved mixture was subsequently transformed into E. coli DH5α. Colonies were evaluated by colony PCR and sequenced. The mutant plasmid was transformed into E. coli BL21 (DE3) after successful sequencing. The steps for expression and purification of all recombinants were described above.
(§3) Isothermal calorimetry (ITC) titration experiments were performed at 25 °C. WT Keap1, Keap1 mutants and PBA were dissolved in binding buffer (40 mM Tris-HCl pH 8.0, 250 mM NaCl). In a typical experiment, 60 μL of PBA (1 mM) was injected 19 times at 2-min intervals from a stirring syringe into the sample cell containing 300 μL of WT protein or mutants (30 μM). The first injection was 0.4 μL of PBA, and the subsequent 18 injections were 2 μL each time. The site-binding models were determined by using MicroCal Origin software.
(In general: In ITC the heat of successive injections is recorded.)

For the next test, the system named is ROS in H9c2 cells. The test can be described thus: Intracellular ROS (DCFH-DA), OGD/R H9c2. The class given is cell-based, rat. On the procedure: The fluorescent probe DCFH-DA was used to measure intracellular ROS levels. RAW264.7 cells were treated with 100 μg/mL LPS plus ATP as mentioned above. H9c2 cells underwent OGD/R. After the appropriate treatment, the cells were incubated with DCFH-DA at a concentration of 10 μM for 30 min. The cells were washed with PBS three times. A fluorescence microscope and microplate reader were used to measure the level of DCFH-DA fluorescence at the excitation wavelength of 488 nm and the emission wavelength of 525 nm.

The subject of another test is NLRP3 inflammasome. The experiment in a line: OGD/R-induced NLRP3 inflammasome activation in primary cardiomyocytes. The class given is cell-based, mouse. As to conditions: OGD 3 h, reperfusion 18 h, dose-dependent. As for the experimental part: The heart was removed from the neonatal C57BL/6 mice and cut into 1 mm^3 pieces in ice […] buffer. The tissues were digested with the mixture of 0.125% trypsin (Gibco, 15090-046) and 0.1% type II collagenase (Gibco, 17101-015) 6 min at 37 °C for three times until the tissues were completely digested. The cells were harvested and seeded in a dish. After 90 min of incubation, the cell culture medium was collected and centrifuged. The centrifuged cardiomyocytes were harvested, seeded on 0.1 % gelatin-coated culture plates with DMEM containing 10% FBS and […] Brdu, and incubated in a 37°C incubator.
Total protein was isolated from H9c2 cells, primary mouse cardiomyocytes, RAW264.7 cells and heart tissue using 1X RIPA buffer containing phosphatase and proteinase inhibitors at 4 °C. […] After the membranes was washed by TBST buffer for three times, they were incubated with horseradish peroxidase (HRP)-conjugated secondary mouse or rabbit antibodies (1:3,000 dilution) at room temperature (RT) for 1.5 h and then detected by SuperEnhanced chemiluminescence (ECL) reaction reagents (GBCBIO Technologies Inc., Guangzhou, Guangdong, China). […] After letting the membranes stand for 1-2 min, the bands of the respective proteins were detected with the exposure time of 10 ~60 s.

Another test concerns HO-1 and NQO1. The experiment in a line: HO-1 and NQO1 protein expression, RAW264.7. The class given is cell-based. The conditions noted are these: RAW264.7, 24 h, dose-dependent. As for the experimental part: Total protein was isolated from H9c2 cells, primary mouse cardiomyocytes, RAW264.7 cells and heart tissue using 1X RIPA buffer containing phosphatase and proteinase inhibitors at 4 °C. After measurement of the concentration, the cell lysates were separated by sodium dodecyl sulphate polyacrylamide gel electrophoresis (SDS-PAGE) and transferred to polyvinylidene fluoride (PVDF) membranes. The membranes were blocked in Tris-buffered saline-Tween 20 (TBST) buffer with 5% BSA for 1 h and incubated with primary antibodies (1:1000 dilution) overnight at 4 °C. After the membranes was washed by TBST buffer for three times, they were incubated with horseradish peroxidase (HRP)-conjugated secondary mouse or rabbit antibodies (1:3,000 dilution) at room temperature (RT) for 1.5 h and then detected by SuperEnhanced chemiluminescence (ECL) reaction reagents (GBCBIO Technologies Inc., Guangzhou, Guangdong, China). In brief, drop evenly the ECL working liquid onto the membrane at the ratio of 1 mL ECL working liquid and 10 cm^2 of membrane. After letting the membranes stand for 1-2 min, the bands of the respective proteins were detected with the exposure time of 10 ~60 s.

For the next test, the target named is T2, Keap1 C434S (Homo sapiens, UniProt Q14145, C434S).
T2 construct: His (N); made in house; host or cells: E. coli BL21 (DE3)
T2 sequence (Q14145 whole entry C434S): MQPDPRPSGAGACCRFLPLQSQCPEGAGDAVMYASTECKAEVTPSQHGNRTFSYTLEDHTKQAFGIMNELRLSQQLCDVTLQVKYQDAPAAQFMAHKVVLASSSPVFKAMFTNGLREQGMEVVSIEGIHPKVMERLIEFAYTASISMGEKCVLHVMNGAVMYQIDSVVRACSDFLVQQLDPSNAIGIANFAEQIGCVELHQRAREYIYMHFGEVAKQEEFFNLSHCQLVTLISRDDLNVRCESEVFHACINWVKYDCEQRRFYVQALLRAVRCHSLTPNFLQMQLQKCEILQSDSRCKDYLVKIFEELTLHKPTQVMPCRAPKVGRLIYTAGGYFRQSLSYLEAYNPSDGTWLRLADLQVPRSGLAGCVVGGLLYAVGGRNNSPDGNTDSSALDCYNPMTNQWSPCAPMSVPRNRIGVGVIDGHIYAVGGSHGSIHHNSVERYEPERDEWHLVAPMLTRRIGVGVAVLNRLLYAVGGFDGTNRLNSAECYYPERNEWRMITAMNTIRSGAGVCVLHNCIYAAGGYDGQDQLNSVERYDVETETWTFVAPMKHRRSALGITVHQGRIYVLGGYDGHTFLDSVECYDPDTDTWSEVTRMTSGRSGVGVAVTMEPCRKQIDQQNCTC
The test can be described thus: ITC titration of PBA with Keap1-C434S. As to conditions: 25 ℃. The class given is binding. As for the experimental part: as §1, §2, §3

T1 sequence (Q14145 whole entry C226S): as the sequence (Q14145 whole entry C434S) above, with C226S, S434C counted along it

Regarding `C=C(COC(=O)C=Cc1ccc(O)c(O)c1)C(O)COC1OC(CO)C(O)C(O)C1O` (centres unmarked) [PBA, pubescenoside A], at Keap1 C226S, the Kd stood at 8.12 µM, the “T△S” value was 1.84 ± 0.00 kcal/mol, the “△G” value is -6.95 ± 0.00 kcal/mol and the “△H” value was -5.11 ± 0.279 kcal/mol. Besides, the “OGD/R-induced ROS” value in the test with ROS in H9c2 cells was “significantly suppress”. The “OGD/R-induced inflammasome activation (NLRP3, cleaved-caspase1, mature IL-1β)” value in the test with NLRP3 inflammasome is given as “substantially inhibited”. Also, the “HO-1 and NQO1 expression at the protein level” value in the test with HO-1 and NQO1 is reported as “increased”. Also, on Keap1 C434S, the dissociation constant (Kd) turned out to be 13.9 µM, the “T△S” value was found to be 1.87 ± 0.00 kcal/mol, the “△G” value was -6.63 ± 0.00 kcal/mol and the “△H” value was -4.76 ± 0.367 kcal/mol.

One may read the Kd as the concentration at which binding is half-saturated. High values mean weaker binding, low ones tighter binding.
